Two molecules from patent US20250099553A1, “COMPOSITION AND METHODS FOR MODULATION OF ELOVL2” (YOUHEALTH BIOTECH, LIMITED, priority 2018, published 2025) can be followed below.

The test system of experiment [1] is Elovl2 knock-down human RPE cells (KE). The experiment in a line: Drug rescue of Elovl2 knockdown (KE) human RPE cells, AMD phenotype (immunofluorescence, qPCR). The class given is cell-based. The note with it: 5 mM nicotinamide, 48 h, FIGS. 5I-5J. The method, then:
For Elovl2 knockdown, lentivector (pLL3.7-shElovl2) exogenously expressing shRNA (5′-[…]-3′) was made and transfected into 293T cells (ATCC) using Lipofectamin 3000 reagent (Thermo Fisher) to obtain lentivirus. To build the Elovl2-knockdown cell line, human RPE cells (seeded a night ahead in a concentration of 5*10^5 cells/well) in a 6-well plate were infected with the lentivirus containing Elovl2-shRNA for 24h, followed by 24 h of equilibration. Drug treatments were performed at the time of 48 h post-infection. To rescue the Elovl2 knockdown cells, 10 μg/ml curcumin (Sigma, C7727) or 5 mM nicotinamide (Sigma, N0636) or DMSO were added in the cell culture medium and the cells were treated for 48 h.
Murine tissue sample were freshly collected upon perfusion, followed by overnight PFA fixation and sucrose dehydration. Human fibroblast cells, human RPE cells and murine primary cells were fixed with 4% PFA for 1 h. To perform immunofluorescence, the slide was rinsed in PBS for 5 minutes, blocked in blocking buffer (PBS with 1% BSA, 0.1% Tween-20) for 20 minutes at room temperature (RT), and incubated with primary antibody in blocking buffer for 1 hour at RT. After 3 washes with 0.1% Tween-20 in PBS, the slide was incubated with secondary antibody in blocking buffer for 1 hour at RT. The slides were mounted with DAPI-Vectashield solution (Vector laboratories). Images were taken with a confocal microscope (LSM 780). To estimate the mitochondrial conditions, human RPE cells and murine primary cells were incubated with either MitoSOX (5 uM) according to manufacturer's instructions.

Experiment [2] concerns human fibroblast cells. The method, then:
The human RPE cells were primarily derived from healthy donors. The human fibroblast cells are purchased from ATCC (WI-38, ATCC® CCL-75) human fibroblasts were maintained in Dulbecco's Modified Eagle Medium (DMEM) supplemented with 10% fetal bovine serum and 50 U/ml penicillin-streptomycin. Human RPE cells were cultured with DMEM/F-12 (1:1) supplemented with 10% fetal bovine serum and 50 U/ml penicillin-streptomycin.
RNA was extracted by RNeasy Mini Kit (QIAGEN, 74104) and the RNase-Free DNase Set (QIAGEN, 79254) was used to ensure no DNA contamination. Reverse transcription was performed by High Capacity cDNA Reverse Transcription Kit (ABI, 4368814). SYBR-qPCR was performed by Power SYBR® Green PCR Master Mix (ABI, 4367659). All primers were designed using PrimerPremier5 and synthesized from Integrated DNA Technologies.

Consider `NC(=O)c1cccnc1` [nicotinamide], for which, in experiment [1], the AMD markers result is listed as “reduction of AMD markers”, the “expression of cellular senescence genes” value was “reversed the abnormal expression of cellular senescence genes” and the mitochondrial dysfunction result is “reduced mitochondrial dysfunction”.

For `OO` [H2O2, hydrogen peroxide], the “methylation on biological aging marker Elovl2” value in experiment [2] (H2O2 treated human fibroblast cells, MeDip-qPCR) was “Increased methylation”. The senescent markers entry in experiment [2] (H2O2 treated human fibroblast cells, FIGS. 1D-1E, 6E-6F) is reported as “increase of senescent markers”. Besides, the “expression of Elovl2” value in experiment [2] (after H2O2 treatment, groups with DNMT1, DNMT3A and DNMT3B knockdown but not CHD4 knockdown, FIG. 6H) is listed as “decreased”.
